Source: ChEMBL document CHEMBL1144724, “Secondary metabolites of Cinnamosma madagascariensis and their alpha-glucosidase inhibitory properties” (J Nat Prod, 2008)
Calls of active or inactive are those of the source. The rule behind the calls is not given here.

Test: Inhibition of alpha-glucosidase at 0.1 mg/mL relative to 1-deoxynojirimycin

With `CC(=O)O[C@@H]1C=C(C2O[C@@H]3OC(O)C4=C[C@@H](OC(C)=O)[C@H]5C(C)(C)CCC[C@]5(C)[C@]43O2)[C@](O)(C=O)[C@@]2(C)CCCC(C)(C)[C@H]12` (stereo partly drawn) as the compound, how does the inhibition read?
Its inhibition is 83.7%.

With `CC(=O)O[C@@H]1[C@@H](Cl)C2=C(COC2=O)[C@@]2(C)CCCC(C)(C)[C@H]12` as the compound, how does the inhibition read?
Its inhibition is 28.1%.

With `CC1(C)CCC[C@]2(C)[C@@H](C=O)C(C=O)=CC[C@@H]12` as the compound, how does the inhibition read?
The inhibition was 2.1%.

With `CC(=O)O[C@@H]1[C@@H](O)C2=C(COC2=O)[C@@]2(C)CCCC(C)(C)[C@H]12` as the compound, how does the inhibition read?
Its inhibition is 14.9%.

Which inhibition does the source give for `CC(=O)O[C@@H]1[C@@H](O)C2=C(C(=O)OC2)[C@@]2(C)CCCC(C)(C)[C@H]12` here?
The inhibition was 46.2%.

Which Activity does the source give for `CO[C@@H]1O[C@@H](OC)[C@@]2(O)C1=C[C@@H](OC(C)=O)[C@H]1C(C)(C)CCC[C@@]12C` here?
The Activity was “inactive”.

Which inhibition does the source give for `CC(=O)O[C@@H]1C=C2C(=O)OC[C@]2(O)[C@@]2(C)CCCC(C)(C)[C@H]12` here?
Its inhibition is 20%.

Which inhibition does the source give for `CC1(C)CCC[C@@]2(C)[C@H]1[C@H](O)C=C1C(=O)OC[C@@]12O` here?
The inhibition was 7.2%.
